US6355799B1, “Substituted benzene compounds, process for their preparation, and herbicidal and defoliant compositions containing them” (ISK Americas Incorporated, priority 1997, dated 2002)

Legend:
Type in all cases: in vivo
[1] = tested on: lambsquarters (Chenopodium album, CHEAL); assay: Pre-emerge test, greenhouse herbicide activity screening; conditions: Chenopodium album, pre-emergence, 336 h, pre-emerge, phytotoxicity rating 0-100 at 14 days after application, read-out: Pre-emerge Herbicidal Activity CHEAL; for pest or weed control at 63 g/ha: rate 63 g ai/ha; for pest or weed control at 250 g/ha: rate 250 g ai/ha
Outline: (§1)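 Compounds in acetone were track-sprayed at 15-1000 g ai/ha (187 l/ha) on sandy loam pots: pre-emerge one day after seeding, post-emerge at 2-3 leaf stage with 0.25% v/v non-ionic surfactant. Phytotoxicity was rated 14 days later on a 0 (no damage) to 100 (complete death) scale.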

[2] = tested on: velvetleaf (Abutilon theophrasti, ABUTH); assay: as above; conditions: Abutilon theophrasti, pre-emergence, 336 h, pre-emerge, phytotoxicity rating 0-100 at 14 days after application, read-out: Pre-emerge Herbicidal Activity ABUTH; for pest or weed control at 63 g/ha: rate 63 g ai/ha; for pest or weed control at 250 g/ha: rate 250 g ai/ha
Outline: as §1

[3] = tested on: green foxtail (Setaria viridis, SETVI); assay: as above; conditions: Setaria viridis, pre-emergence, 336 h, pre-emerge, phytotoxicity rating 0-100 at 14 days after application, read-out: Pre-emerge Herbicidal Activity SETVI; for pest or weed control at 63 g/ha: rate 63 g ai/ha; for pest or weed control at 250 g/ha: rate 250 g ai/ha
Outline: as §1

[4] = tested on: ivyleaf morningglory (Ipomoea hederacea, IPOHE); assay: as above; conditions: Ipomoea, pre-emergence, 336 h, pre-emerge, phytotoxicity rating 0-100 at 14 days after application, read-out: Pre-emerge Herbicidal Activity IPOHE; for pest or weed control at 63 g/ha: rate 63 g ai/ha; for pest or weed control at 250 g/ha: rate 250 g ai/ha
Outline: as §1

[5] = tested on: johnsongrass (Sorghum halepense, SORHA); assay: as above; conditions: Sorghum halepense, pre-emergence, 336 h, pre-emerge, phytotoxicity rating 0-100 at 14 days after application, read-out: Pre-emerge Herbicidal Activity SORHA; for pest or weed control at 63 g/ha: rate 63 g ai/ha; for pest or weed control at 250 g/ha: rate 250 g ai/ha
Outline: as §1

[6] = tested on: large crabgrass (Digitaria sanguinalis, DIGSA); assay: as above; conditions: Digitaria sanguinalis, pre-emergence, 336 h, pre-emerge, phytotoxicity rating 0-100 at 14 days after application, read-out: Pre-emerge Herbicidal Activity DIGSA; for pest or weed control at 63 g/ha: rate 63 g ai/ha; for pest or weed control at 250 g/ha: rate 250 g ai/ha
Outline: as §1

[7] = tested on: barnyardgrass (Echinochloa crus-galli, ECHCG); assay: as above; conditions: Echinochloa crus-galli, pre-emergence, 336 h, pre-emerge, phytotoxicity rating 0-100 at 14 days after application, read-out: Pre-emerge Herbicidal Activity ECHCG; for pest or weed control at 63 g/ha: rate 63 g ai/ha; for pest or weed control at 250 g/ha: rate 250 g ai/ha
Outline: as §1

[8] = tested on: sicklepod (Cassia obtusifolia, CASOB); assay: as above; conditions: Senna obtusifolia, pre-emergence, 336 h, pre-emerge, phytotoxicity rating 0-100 at 14 days after application, read-out: Pre-emerge Herbicidal Activity CASOB; for pest or weed control at 63 g/ha: rate 63 g ai/ha; for pest or weed control at 250 g/ha: rate 250 g ai/ha
Outline: as §1

[9] = tested on: lambsquarters (Chenopodium album, CHEAL); assay: Post-emerge test, greenhouse herbicide activity screening; conditions: Chenopodium album, post-emergence, 336 h, post-emerge, phytotoxicity rating 0-100 at 14 days after application, read-out: Post-emerge Herbicidal Activity CHEAL; for pest or weed control at 63 g/ha: 63 g ai/ha; for pest or weed control at 250 g/ha: 250 g ai/ha
Outline: (§2)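 Compounds in acetone were track-sprayed at 187 l/ha, 15–1000 g ai/ha, onto sandy loam pots. Pre-emerge seeds were sown one day before spraying, with surface watering afterwards. Post-emerge plants were at the 2–3 leaf stage and sprayed with 0.25% v/v non-ionic surfactant. Injury was rated 0–100 at 14 days.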

[10] = tested on: velvetleaf (Abutilon theophrasti, ABUTH); assay: as above; conditions: Abutilon theophrasti, post-emergence, 336 h, post-emerge, phytotoxicity rating 0-100 at 14 days after application, read-out: Post-emerge Herbicidal Activity ABUTH; for pest or weed control at 63 g/ha: 63 g ai/ha; for pest or weed control at 250 g/ha: 250 g ai/ha
Outline: as §2

[11] = tested on: green foxtail (Setaria viridis, SETVI); assay: as above; conditions: Setaria viridis, post-emergence, 336 h, post-emerge, phytotoxicity rating 0-100 at 14 days after application, read-out: Post-emerge Herbicidal Activity SETVI; for pest or weed control at 63 g/ha: 63 g ai/ha; for pest or weed control at 250 g/ha: 250 g ai/ha
Outline: as §2

[12] = tested on: redroot pigweed (Amaranthus retroflexus, AMARE); assay: as above; conditions: Amaranthus retroflexus, post-emergence, 336 h, post-emerge, phytotoxicity rating 0-100 at 14 days after application, read-out: Post-emerge Herbicidal Activity AMARE; for pest or weed control at 63 g/ha: 63 g ai/ha; for pest or weed control at 250 g/ha: 250 g ai/ha
Outline: as §2

[13] = tested on: johnsongrass (Sorghum halepense, SORHA); assay: as above; conditions: Sorghum halepense, post-emergence, 336 h, post-emerge, phytotoxicity rating 0-100 at 14 days after application, read-out: Post-emerge Herbicidal Activity SORHA; for pest or weed control at 63 g/ha: 63 g ai/ha; for pest or weed control at 250 g/ha: 250 g ai/ha
Outline: as §2

[14] = tested on: large crabgrass (Digitaria sanguinalis, DIGSA); assay: as above; conditions: Digitaria sanguinalis, post-emergence, 336 h, post-emerge, phytotoxicity rating 0-100 at 14 days after application, read-out: Post-emerge Herbicidal Activity DIGSA; for pest or weed control at 63 g/ha: 63 g ai/ha; for pest or weed control at 250 g/ha: 250 g ai/ha
Outline: as §2

[15] = tested on: sicklepod (Cassia obtusifolia, CASOB); assay: as above; conditions: Senna obtusifolia, post-emergence, 336 h, post-emerge, phytotoxicity rating 0-100 at 14 days after application, read-out: Post-emerge Herbicidal Activity CASOB; for pest or weed control at 63 g/ha: 63 g ai/ha; for pest or weed control at 250 g/ha: 250 g ai/ha
Outline: as §2

Compound | pest or weed control at 63 g/ha [1] | pest or weed control at 250 g/ha [1] | pest or weed control at 63 g/ha [2] | pest or weed control at 250 g/ha [2] | pest or weed control at 63 g/ha [3] | pest or weed control at 250 g/ha [3] | pest or weed control at 63 g/ha [4] | pest or weed control at 250 g/ha [4] | pest or weed control at 63 g/ha [5] | pest or weed control at 250 g/ha [5] | pest or weed control at 63 g/ha [6] | pest or weed control at 250 g/ha [6] | pest or weed control at 63 g/ha [7] | pest or weed control at 250 g/ha [7] | pest or weed control at 63 g/ha [8] | pest or weed control at 250 g/ha [8] | pest or weed control at 63 g/ha [9] | pest or weed control at 250 g/ha [9] | pest or weed control at 63 g/ha [10] | pest or weed control at 250 g/ha [10] | other results
Cc1nn(-c2c(N)cc(Cl)cc2F)c(=O)n1C(F)F [Compound 6-22] | 40% | 100% | 20% | 100% | 10% | 50% | 0% | 0% | 0% | 10% | 0% | 20% | 0% | 0% | 0% | 60% | 50% | 70% | 60% | 80% | pest or weed control at 63 g/ha [11]: 0%; pest or weed control at 250 g/ha [11]: 0%; pest or weed control at 63 g/ha [12]: 70%; pest or weed control at 250 g/ha [12]: 100%; pest or weed control at 63 g/ha [13]: 0%; pest or weed control at 250 g/ha [13]: 0%; pest or weed control at 63 g/ha [14]: 0%; pest or weed control at 250 g/ha [14]: 0%; pest or weed control at 63 g/ha [15]: 0%; pest or weed control at 250 g/ha [15]: 0%
CC(C)Oc1c(Cl)cc(F)c(N2C(=O)C3=C(CCCC3)C2=O)c1N [Compound 8-4, N-(2-amino-4-chloro-6-fluoro-3-isopropyloxyphenyl)tetrahydrophthalimide] | 80% | 99% | 0% | 90% | 30% | 70% | 0% | 0% | 0% | 20% | 20% | 20% | 0% | 0% | 0% | 0% | 70% | 90% | 60% | 80% | pest or weed control at 63 g/ha [11]: 0%; pest or weed control at 250 g/ha [11]: 30%; pest or weed control at 63 g/ha [12]: 70%; pest or weed control at 250 g/ha [12]: 90%; pest or weed control at 63 g/ha [13]: 0%; pest or weed control at 250 g/ha [13]: 0%; pest or weed control at 63 g/ha [14]: 0%; pest or weed control at 250 g/ha [14]: 0%; pest or weed control at 63 g/ha [15]: 0%; pest or weed control at 250 g/ha [15]: 10%
Cc1nn(-c2c(Cl)cc(Cl)c(N)c2N)c(=O)n1C(F)F [Compound 6-20] | 50% | 30% | 0% | 0% | 0% | 0% | 0% | 0% | 0% | 0% | 0% | 0% | 0% | 0% | 0% | 0% | 0% | 60% | 0% | 50% | pest or weed control at 63 g/ha [11]: 0%; pest or weed control at 250 g/ha [11]: 0%; pest or weed control at 63 g/ha [12]: 0%; pest or weed control at 250 g/ha [12]: 60%; pest or weed control at 63 g/ha [13]: 0%; pest or weed control at 250 g/ha [13]: 0%; pest or weed control at 63 g/ha [14]: 0%; pest or weed control at 250 g/ha [14]: 0%; pest or weed control at 63 g/ha [15]: 0%; pest or weed control at 250 g/ha [15]: 0%
